Reference: patent publication US7074743B1, “Herbicidal composition comprising 4-iodo-2-[3-(4-methoxy-6-methyl-1,3,5-triazin-2-yl)ureidosulfonyl]benzoic esters” (priority 1995, dated 2006)

What was measured:
Type in all cases: in vivo
Phalaris canariensis = assay: Herbicidal action on PHACA, visual scoring vs untreated, post-emergence 2-4 leaf stage (greenhouse / field trials)
Description: (§1) The examples given below were performed in the greenhouse and, in some cases, in field trials.
(§2) The herbicides, or combinations, were applied in cereals after the weeds had emerged naturally using plot sprayers. After application, the results, such as damage to the crop plants and effect on broad-leaved weeds/grass weeds were assessed by means of visual scoring. The herbicidal action was assessed qualitatively and quantitatively by comparing untreated and treated plots on the basis of the effect on plant growth and the development of chloroses and necroses down to the complete destruction of the weeds (0–100%). The application was effected when the crop plants and weeds were in the 2–4 leaf stage. The test was evaluated approximately 4 weeks after application.
(§3) In the greenhouse experiments, the crop plants and broadleaved weeds/grass weeds were grown in No. 13 pots and treated in the 2–4 leaf stage. The pots were subsequently placed in the greenhouse under good growth conditions (temperature, atmospheric humidity, water supply).
(§4) The assessments were carried out similarly to those in the field trials, i.e. visual scoring of the treated plants in comparison with untreated control variants. These assessments were carried out 3 weeks after applying the test preparations and their combinations. The experiments had been set up in two replications.
(§5) To assess the combination effects, the activities of the individual components were added and compared with the activity of the mixtures in equal doses. It was frequently observed that the efficacies of the combinations exceeded the total of the individual activities.
(§6) In cases with less clear effects, the expected value was calculated using Colby's formula and compared with the empirically determined result. The calculated efficacy of a combination which is expected in theory is determined is using S.R. Colby's formula: “Calculation of synergistic and antagonistic responses of herbicide combinations”, Weeds 15 (1967), pages 20 to 22.
(§7) [formula] where • X=% damage caused by herbicide A at a rate of ×kg a.i./ha; • Y=% damage caused by herbicide B at a rate of y kg a.i./ha; • Z=% damage caused by a further herbicide C at a rate of z kg a.i./ha; • E=expected value, i.e. expected damage caused by herbicides A+B (or A+B+C) at x+y (or x+y+z) kg a.i./ha.
(§8) Synergistic effects were assumed to be when the empirical value exceeded the expected value. In the case of combinations with individual components with the same active substances, comparisons via the total formula were also possible.

Apera spica venti = assay: Herbicidal action on APESV, visual scoring vs untreated, post-emergence 2-4 leaf stage; details: Table 1
Description: as §1, §2, §3, §4, §5, §6, §7, §8

Triticum aestivum = assay: Damage to crop plant TRZAW, visual scoring vs untreated
Description: as §1, §2, §3, §4

Lolium multiflorum = assay: Herbicidal action on LOLMU, visual scoring vs untreated, post-emergence 2-4 leaf stage
Description: as §1, §2, §3, §4, §5, §6, §7, §8

Echinochloa crus galli = assay: Herbicidal action on ECHCR, visual scoring vs untreated, post-emergence 2-4 leaf stage
Description: as §1, §2, §3, §4, §5, §6, §7, §8

Fallopia convolvulus = assay: Herbicidal action on FALCO, visual scoring vs untreated, post-emergence 2-4 leaf stage
Description: as §1, §2, §3, §4, §5, §6, §7, §8

Secale cereale = assay: Damage to crop plant SECCW, visual scoring vs untreated
Description: as §1, §2, §3, §4

Gallium aparine = assay: Herbicidal action on GALAP, visual scoring vs untreated, post-emergence 2-4 leaf stage
Description: as §1, §2, §3, §4, §5, §6, §7, §8

Viola arvensis = assay: Herbicidal action on VIOAR, visual scoring vs untreated, post-emergence 2-4 leaf stage; details: Table 7
Description: as §1, §2, §3, §4, §5, §6, §7, §8

Avena fatua = assay: Herbicidal action on AVEFA, visual scoring vs untreated, post-emergence 2-4 leaf stage; details: Table 11
Description: as §1, §2, §3, §4, §5, §6, §7, §8

Mercurialis annua = assay: Herbicidal action on MERAN, visual scoring vs untreated, post-emergence 2-4 leaf stage; details: Table 11
Description: as §1, §2, §3, §4, §5, §6, §7, §8

COC(=O)c1ccc(I)cc1S(=O)(=O)NC(=O)Nc1nc(C)nc(OC)n1.[Na] [A), sodium salt of methyl 4-iodo-2-[3-(4-methoxy-6-methyl-1,3,5-triazin-2-yl)ureidosulfonyl]benzoate]
PHACA % control (Phalaris canariensis; Table 1, 3 g of a.i./ha): 0%
PHACA % control (Phalaris canariensis; Table 1, 5 g of a.i./ha): 15%
PHACA % control (Phalaris canariensis; Table 1, 10 g of a.i./ha): 35%
PHACA % control (Phalaris canariensis; Table 1, 20 g of a.i./ha): 53%
PHACA % control (Phalaris canariensis; Table 2, 3 g of a.i./ha): 0%
PHACA % control (Phalaris canariensis; Table 2, 5 g of a.i./ha): 15%
PHACA % control (Phalaris canariensis; Table 2, 10 g of a.i./ha): 35%
PHACA % control (Phalaris canariensis; Table 2, 20 g of a.i./ha): 53%
PHACA % control (Phalaris canariensis; Table 3, 3 g of a.i./ha): 0%
PHACA % control (Phalaris canariensis; Table 3, 5 g of a.i./ha): 15%
PHACA % control (Phalaris canariensis; Table 3, 10 g of a.i./ha): 35%
PHACA % control (Phalaris canariensis; Table 3, 20 g of a.i./ha): 53%
APESV % control (Apera spica venti; 3 g of a.i./ha): 85%
APESV % control (Apera spica venti; 5 g of a.i./ha): 93%
APESV % control (Apera spica venti; 10 g of a.i./ha): 97%
APESV % control (Apera spica venti; 20 g of a.i./ha): 98%
TRZAW % damage (Triticum aestivum; Table 1, 3 g of a.i./ha): 0%
TRZAW % damage (Triticum aestivum; Table 1, 5 g of a.i./ha): 0%
TRZAW % damage (Triticum aestivum; Table 1, 10 g of a.i./ha): 0%
TRZAW % damage (Triticum aestivum; Table 1, 20 g of a.i./ha): 0%
TRZAW % damage (Triticum aestivum; Table 2, 3 g of a.i./ha): 0%
TRZAW % damage (Triticum aestivum; Table 2, 5 g of a.i./ha): 0%
TRZAW % damage (Triticum aestivum; Table 2, 10 g of a.i./ha): 0%
TRZAW % damage (Triticum aestivum; Table 2, 20 g of a.i./ha): 0%
TRZAW % damage (Triticum aestivum; Table 3, 3 g of a.i./ha): 0%
TRZAW % damage (Triticum aestivum; Table 3, 5 g of a.i./ha): 0%
TRZAW % damage (Triticum aestivum; Table 3, 10 g of a.i./ha): 0%
TRZAW % damage (Triticum aestivum; Table 3, 20 g of a.i./ha): 0%
TRZAW % damage (Triticum aestivum; Table 5, 2.5 g of a.i./ha): 0%
TRZAW % damage (Triticum aestivum; Table 5, 5 g of a.i./ha): 0%
TRZAW % damage (Triticum aestivum; Table 5, 10 g of a.i./ha): 0%
TRZAW % damage (Triticum aestivum; Table 5, 20 g of a.i./ha): 10%
TRZAW % damage (Triticum aestivum; Table 5, 40 g of a.i./ha): 15%
TRZAW % damage (Triticum aestivum; Table 5, 80 g of a.i./ha): 18%
TRZAW % damage (Triticum aestivum; Table 5, 160 g of a.i./ha): 28%
TRZAW % damage (Triticum aestivum; Table 7, 2.5 g of a.i./ha): 0%
TRZAW % damage (Triticum aestivum; Table 7, 5 g of a.i./ha): 0%
TRZAW % damage (Triticum aestivum; Table 7, 10 g of a.i./ha): 2%
TRZAW % damage (Triticum aestivum; Table 7, 20 g of a.i./ha): 10%
TRZAW % damage (Triticum aestivum; Table 9, 2.5 g of a.i./ha): 0%
TRZAW % damage (Triticum aestivum; Table 9, 5 g of a.i./ha): 0%
TRZAW % damage (Triticum aestivum; Table 9, 10 g of a.i./ha): 2%
TRZAW % damage (Triticum aestivum; Table 9, 20 g of a.i./ha): 10%
TRZAW % damage (Triticum aestivum; Table 9, 40 g of a.i./ha): 15%
LOLMU % control (Lolium multiflorum; Table 2, 3 g of a.i./ha): 0%
LOLMU % control (Lolium multiflorum; Table 2, 5 g of a.i./ha): 5%
LOLMU % control (Lolium multiflorum; Table 2, 10 g of a.i./ha): 10%
LOLMU % control (Lolium multiflorum; Table 2, 20 g of a.i./ha): 48%
LOLMU % control (Lolium multiflorum; Table 3, 3 g of a.i./ha): 0%
LOLMU % control (Lolium multiflorum; Table 3, 5 g of a.i./ha): 5%
LOLMU % control (Lolium multiflorum; Table 3, 10 g of a.i./ha): 10%
LOLMU % control (Lolium multiflorum; Table 3, 20 g of a.i./ha): 48%
LOLMU % control (Lolium multiflorum; Table 5, 2.5 g of a.i./ha): 68%
LOLMU % control (Lolium multiflorum; Table 5, 5 g of a.i./ha): 75%
LOLMU % control (Lolium multiflorum; Table 5, 10 g of a.i./ha): 83%
ECHCR % control (Echinochloa crus galli; Table 4, 10 g of a.i./ha): 65%
ECHCR % control (Echinochloa crus galli; Table 4, 20 g of a.i./ha): 75%
ECHCR % control (Echinochloa crus galli; Table 4, 40 g of a.i./ha): 80%
ECHCR % control (Echinochloa crus galli; Table 4, 80 g of a.i./ha): 88%
ECHCR % control (Echinochloa crus galli; Table 8, 10 g of a.i./ha): 65%
ECHCR % control (Echinochloa crus galli; Table 8, 20 g of a.i./ha): 73%
ECHCR % control (Echinochloa crus galli; Table 8, 40 g of a.i./ha): 80%
ECHCR % control (Echinochloa crus galli; Table 8, 80 g of a.i./ha): 88%
FALCO % control (Fallopia convolvulus; Table 5, 2.5 g of a.i./ha): 73%
FALCO % control (Fallopia convolvulus; Table 5, 5 g of a.i./ha): 85%
FALCO % control (Fallopia convolvulus; Table 5, 10 g of a.i./ha): 88%
FALCO % control (Fallopia convolvulus; Table 5, 20 g of a.i./ha): 97%
FALCO % control (Fallopia convolvulus; Table 5, 40 g of a.i./ha): 98%
FALCO % control (Fallopia convolvulus; Table 5, 80 g of a.i./ha): 99%
FALCO % control (Fallopia convolvulus; Table 5, 160 g of a.i./ha): 99%
FALCO % control (Fallopia convolvulus; Table 9, 2.5 g of a.i./ha): 73%
FALCO % control (Fallopia convolvulus; Table 9, 5 g of a.i./ha): 85%
FALCO % control (Fallopia convolvulus; Table 9, 10 g of a.i./ha): 88%
FALCO % control (Fallopia convolvulus; Table 9, 20 g of a.i./ha): 97%
FALCO % control (Fallopia convolvulus; Table 9, 40 g of a.i./ha): 98%
SECCW % damage (Secale cereale; Table 6, 5 g of a.i./ha): 0%
SECCW % damage (Secale cereale; Table 6, 10 g of a.i./ha): 0%
SECCW % damage (Secale cereale; Table 6, 15 g of a.i./ha): 5%
SECCW % damage (Secale cereale; Table 10, 5 g of a.i./ha): 0%
SECCW % damage (Secale cereale; Table 10, 10 g of a.i./ha): 0%
SECCW % damage (Secale cereale; Table 10, 15 g of a.i./ha): 5%
GALAP % control (Gallium aparine; Table 7, 2.5 g of a.i./ha): 35%
GALAP % control (Gallium aparine; Table 7, 5 g of a.i./ha): 58%
GALAP % control (Gallium aparine; Table 7, 10 g of a.i./ha): 60%
GALAP % control (Gallium aparine; Table 7, 20 g of a.i./ha): 99%
GALAP % control (Gallium aparine; Table 11, 5 g of a.i./ha): 75%
GALAP % control (Gallium aparine; Table 11, 10 g of a.i./ha): 98%
VIOAR % control (Viola arvensis; 2.5 g of a.i./ha): 58%
VIOAR % control (Viola arvensis; 5 g of a.i./ha): 75%
VIOAR % control (Viola arvensis; 10 g of a.i./ha): 95%
VIOAR % control (Viola arvensis; 20 g of a.i./ha): 98%
AVEFA % control (Avena fatua; 5 g of a.i./ha): 60%
AVEFA % control (Avena fatua; 10 g of a.i./ha): 80%
MERAN % control (Mercurialis annua; 5 g of a.i./ha): 70%
MERAN % control (Mercurialis annua; 10 g of a.i./ha): 94%
